From patent US11725011B2, “Bicyclic urea kinase inhibitors and uses thereof” (The Broad Institute, Inc., priority 2016, dated 2023)

Tests used:
ERBB2 = ERBB2 (Homo sapiens (Human), UniProt P04626); experiment: KINOMEscan; type: binding; conditions: 1 uM
IKK-epsilon = IKK-epsilon (Homo sapiens (Human), UniProt Q14164); experiment: KINOMEscan; type: binding; conditions: 1 uM
NEK6 = NEK6 (Homo sapiens (Human), UniProt Q9HC98); experiment: KINOMEscan; type: binding; conditions: 1 uM
BMPR2 = BMPR2 (Homo sapiens (Human), UniProt Q13873); experiment: KINOMEscan; type: binding; conditions: 1 uM
BMPR2, sequence (Q13873 27-1038): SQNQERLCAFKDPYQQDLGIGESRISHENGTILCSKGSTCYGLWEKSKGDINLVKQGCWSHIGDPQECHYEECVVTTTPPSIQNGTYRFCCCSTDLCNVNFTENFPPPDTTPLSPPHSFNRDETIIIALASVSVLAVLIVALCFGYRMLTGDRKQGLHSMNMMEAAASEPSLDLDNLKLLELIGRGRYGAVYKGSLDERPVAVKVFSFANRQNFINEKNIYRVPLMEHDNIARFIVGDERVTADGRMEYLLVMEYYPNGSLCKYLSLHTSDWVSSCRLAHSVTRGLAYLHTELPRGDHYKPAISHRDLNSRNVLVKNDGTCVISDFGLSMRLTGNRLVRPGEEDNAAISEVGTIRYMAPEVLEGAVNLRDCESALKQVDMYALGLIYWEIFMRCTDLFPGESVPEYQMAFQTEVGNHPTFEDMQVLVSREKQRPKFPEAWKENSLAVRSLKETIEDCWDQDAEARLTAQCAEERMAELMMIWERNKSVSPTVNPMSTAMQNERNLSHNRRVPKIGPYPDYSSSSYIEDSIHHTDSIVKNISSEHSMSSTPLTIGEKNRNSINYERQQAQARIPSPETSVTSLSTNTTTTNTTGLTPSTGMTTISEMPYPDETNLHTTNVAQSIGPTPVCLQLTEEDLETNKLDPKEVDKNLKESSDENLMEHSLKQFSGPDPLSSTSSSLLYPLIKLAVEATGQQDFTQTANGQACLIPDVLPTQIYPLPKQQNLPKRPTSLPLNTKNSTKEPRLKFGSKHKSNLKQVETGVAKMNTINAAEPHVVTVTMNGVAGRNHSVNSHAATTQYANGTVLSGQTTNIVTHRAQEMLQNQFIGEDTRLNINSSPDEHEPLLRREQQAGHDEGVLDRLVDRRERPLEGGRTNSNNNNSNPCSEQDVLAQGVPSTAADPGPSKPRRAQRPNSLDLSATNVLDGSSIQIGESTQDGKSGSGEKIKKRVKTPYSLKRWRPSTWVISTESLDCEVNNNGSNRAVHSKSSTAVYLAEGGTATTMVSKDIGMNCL

MST3 = MST3 (Homo sapiens (Human), UniProt Q9Y6E0); experiment: KINOMEscan; type: binding; conditions: 1 uM
SNRK = SNRK (Homo sapiens (Human), UniProt Q9NRH2); experiment: KINOMEscan; type: binding; conditions: 1 uM
MKK7 = MKK7 (Homo sapiens (Human), UniProt O14733); experiment: KINOMEscan; type: binding; conditions: 1 uM
ERK3 = ERK3 (Homo sapiens (Human), UniProt Q16659); experiment: KINOMEscan; type: binding; conditions: 1 uM
ERK3, sequence (Q16659 whole entry): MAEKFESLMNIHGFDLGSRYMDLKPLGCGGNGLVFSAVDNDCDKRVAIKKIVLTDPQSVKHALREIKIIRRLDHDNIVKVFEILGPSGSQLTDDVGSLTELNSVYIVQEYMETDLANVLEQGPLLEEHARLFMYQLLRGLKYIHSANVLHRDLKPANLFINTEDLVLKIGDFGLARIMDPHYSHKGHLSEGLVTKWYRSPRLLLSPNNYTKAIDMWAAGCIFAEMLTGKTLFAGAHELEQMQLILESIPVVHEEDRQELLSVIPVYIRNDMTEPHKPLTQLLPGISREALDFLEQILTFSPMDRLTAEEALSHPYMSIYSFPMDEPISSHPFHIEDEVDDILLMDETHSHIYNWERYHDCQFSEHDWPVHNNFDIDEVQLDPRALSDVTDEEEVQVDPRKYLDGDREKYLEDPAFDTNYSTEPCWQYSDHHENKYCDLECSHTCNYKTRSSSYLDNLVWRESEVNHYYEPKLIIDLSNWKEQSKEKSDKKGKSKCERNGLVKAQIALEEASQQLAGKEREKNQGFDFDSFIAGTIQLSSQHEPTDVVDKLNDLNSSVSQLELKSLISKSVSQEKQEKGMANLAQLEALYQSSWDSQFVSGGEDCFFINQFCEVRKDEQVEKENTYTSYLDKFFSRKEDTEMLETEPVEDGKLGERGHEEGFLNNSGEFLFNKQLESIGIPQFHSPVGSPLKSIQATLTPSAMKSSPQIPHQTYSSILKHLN

LKB1 = LKB1 (Homo sapiens (Human), UniProt Q15831); experiment: KINOMEscan; type: binding; conditions: 1 uM
LKB1, sequence (Q15831 whole entry): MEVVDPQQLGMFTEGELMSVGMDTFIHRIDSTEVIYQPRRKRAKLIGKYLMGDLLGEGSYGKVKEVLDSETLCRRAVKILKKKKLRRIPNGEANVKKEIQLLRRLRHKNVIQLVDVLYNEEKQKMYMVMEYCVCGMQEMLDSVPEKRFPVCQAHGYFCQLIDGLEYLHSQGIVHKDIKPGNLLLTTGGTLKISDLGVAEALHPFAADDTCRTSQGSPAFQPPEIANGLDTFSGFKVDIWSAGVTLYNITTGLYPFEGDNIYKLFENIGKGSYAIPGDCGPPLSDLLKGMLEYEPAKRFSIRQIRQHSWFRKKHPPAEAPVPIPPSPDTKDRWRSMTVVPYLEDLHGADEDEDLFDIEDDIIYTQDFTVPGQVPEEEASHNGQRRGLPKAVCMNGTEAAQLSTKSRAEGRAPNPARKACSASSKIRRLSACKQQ

HPK1 = HPK1 (Homo sapiens (Human), UniProt Q92918); experiment: KINOMEscan; type: binding; conditions: 1 uM
YANK1 = YANK1 (Homo sapiens (Human), UniProt Q8WU08); experiment: KINOMEscan; type: binding; conditions: 1 uM
CDKL2 = CDKL2 (Homo sapiens (Human), UniProt Q92772); experiment: KINOMEscan; type: binding; conditions: 1 uM
FLT4 = FLT4 (Homo sapiens (Human), UniProt P35916); experiment: KINOMEscan; type: binding; conditions: 1 uM
NEK3 = NEK3 (Homo sapiens (Human), UniProt P51956); experiment: KINOMEscan; type: binding; conditions: 1 uM
GAK = GAK (Homo sapiens (Human), UniProt O14976); experiment: KINOMEscan; type: binding; conditions: 1 uM
FLT1 = FLT1 (Homo sapiens (Human), UniProt P17948); experiment: KINOMEscan; type: binding; conditions: 1 uM
DDR1 = DDR1 (Homo sapiens (Human), UniProt Q08345); experiment: KINOMEscan; type: binding; conditions: 1 uM
SBK1 = SBK1 (Homo sapiens (Human), UniProt Q52WX2); experiment: KINOMEscan; type: binding; conditions: 1 uM
[1] = biological target: ABL1 (Y253F)-phosphorylated (Homo sapiens (Human), UniProt P00519, Y253F); experiment: KINOMEscan; type: binding; conditions: 1 uM
RIPK2 = RIPK2 (Homo sapiens (Human), UniProt O43353); experiment: KINOMEscan; type: binding; conditions: 1 uM
JNK2 = JNK2 (Homo sapiens (Human), UniProt P45984); experiment: KINOMEscan; type: binding; conditions: 1 uM
JNK2, sequence (P45984 whole entry): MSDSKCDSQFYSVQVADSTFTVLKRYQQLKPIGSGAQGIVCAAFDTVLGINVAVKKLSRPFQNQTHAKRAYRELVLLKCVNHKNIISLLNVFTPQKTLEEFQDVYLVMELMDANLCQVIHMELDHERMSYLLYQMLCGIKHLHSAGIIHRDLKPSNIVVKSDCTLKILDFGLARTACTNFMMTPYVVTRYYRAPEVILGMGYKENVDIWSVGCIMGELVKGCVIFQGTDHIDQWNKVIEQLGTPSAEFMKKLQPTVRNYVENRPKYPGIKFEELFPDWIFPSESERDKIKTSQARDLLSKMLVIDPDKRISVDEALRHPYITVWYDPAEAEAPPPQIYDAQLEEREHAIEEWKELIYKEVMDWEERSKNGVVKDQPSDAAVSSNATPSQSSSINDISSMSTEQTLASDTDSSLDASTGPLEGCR

[2] = qAC50 biological assay (Table 4)
[3] = biological target: RSK1 (Kin.Dom.2-C-terminal) (Homo sapiens (Human), UniProt Q15418); experiment: KINOMEscan; type: binding; conditions: 1 uM
RSK1 (Kin.Dom.2-C-terminal), sequence (Q15418 418-675): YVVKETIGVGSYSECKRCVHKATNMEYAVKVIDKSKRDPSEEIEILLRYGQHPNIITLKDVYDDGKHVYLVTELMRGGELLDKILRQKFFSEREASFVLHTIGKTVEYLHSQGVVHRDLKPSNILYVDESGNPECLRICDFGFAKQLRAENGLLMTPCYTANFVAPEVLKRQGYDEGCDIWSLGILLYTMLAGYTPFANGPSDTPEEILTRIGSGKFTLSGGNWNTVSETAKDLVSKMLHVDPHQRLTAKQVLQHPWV

PFTAIRE2 = PFTAIRE2 (Homo sapiens (Human), UniProt Q96Q40); experiment: KINOMEscan; type: binding; conditions: 1 uM
LIMK2 = LIMK2 (Homo sapiens (Human), UniProt P53671); experiment: KINOMEscan; type: binding; conditions: 1 uM
IRAK4 = IRAK4 (Homo sapiens (Human), UniProt Q9NWZ3); experiment: KINOMEscan; type: binding; conditions: 1 uM
BUB1 = BUB1 (Homo sapiens (Human), UniProt O43683); experiment: KINOMEscan; type: binding; conditions: 1 uM
EPHA1 = EPHA1 (Homo sapiens (Human), UniProt P21709); experiment: KINOMEscan; type: binding; conditions: 1 uM
EPHA1, sequence (P21709 26-976): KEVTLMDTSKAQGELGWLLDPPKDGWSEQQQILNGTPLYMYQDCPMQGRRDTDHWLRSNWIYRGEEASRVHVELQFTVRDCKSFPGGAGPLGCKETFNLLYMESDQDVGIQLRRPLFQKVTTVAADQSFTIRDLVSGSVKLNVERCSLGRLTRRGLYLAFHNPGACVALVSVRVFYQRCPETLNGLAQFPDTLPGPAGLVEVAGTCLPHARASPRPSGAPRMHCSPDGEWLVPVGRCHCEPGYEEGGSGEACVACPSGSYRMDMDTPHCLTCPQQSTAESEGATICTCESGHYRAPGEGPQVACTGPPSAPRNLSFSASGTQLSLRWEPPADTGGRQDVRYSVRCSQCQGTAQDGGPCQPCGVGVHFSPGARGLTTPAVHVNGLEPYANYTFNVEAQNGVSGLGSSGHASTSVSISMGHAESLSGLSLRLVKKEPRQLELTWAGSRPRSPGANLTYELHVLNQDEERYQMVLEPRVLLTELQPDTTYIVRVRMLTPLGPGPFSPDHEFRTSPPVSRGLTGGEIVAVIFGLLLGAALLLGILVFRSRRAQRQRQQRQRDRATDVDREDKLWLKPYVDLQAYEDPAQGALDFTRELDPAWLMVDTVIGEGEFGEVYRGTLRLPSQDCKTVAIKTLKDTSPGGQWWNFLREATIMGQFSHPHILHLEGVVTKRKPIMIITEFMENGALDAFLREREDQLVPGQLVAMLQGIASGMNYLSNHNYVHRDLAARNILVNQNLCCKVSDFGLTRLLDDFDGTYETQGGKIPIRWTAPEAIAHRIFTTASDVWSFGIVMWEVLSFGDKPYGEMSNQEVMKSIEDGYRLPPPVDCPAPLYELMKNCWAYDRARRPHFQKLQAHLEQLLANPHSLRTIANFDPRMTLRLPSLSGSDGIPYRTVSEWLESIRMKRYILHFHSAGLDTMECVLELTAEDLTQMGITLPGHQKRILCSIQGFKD

MYO3B = MYO3B (Homo sapiens (Human), UniProt Q8WXR4); experiment: KINOMEscan; type: binding; conditions: 1 uM
KIT (V559D, T670I) = KIT (V559D, T670I) (Homo sapiens (Human), UniProt P10721, T670I/V559D); experiment: KINOMEscan; type: binding; conditions: 1 uM
MTOR = MTOR (Homo sapiens (Human), UniProt P42345); experiment: KINOMEscan; type: binding; conditions: 1 uM
MAP3K2 = MAP3K2 (Homo sapiens (Human), UniProt Q9Y2U5); experiment: KINOMEscan; type: binding; conditions: 1 uM
ITK = ITK (Homo sapiens (Human), UniProt Q08881); experiment: KINOMEscan; type: binding; conditions: 1 uM
ITK, sequence (Q08881 whole entry): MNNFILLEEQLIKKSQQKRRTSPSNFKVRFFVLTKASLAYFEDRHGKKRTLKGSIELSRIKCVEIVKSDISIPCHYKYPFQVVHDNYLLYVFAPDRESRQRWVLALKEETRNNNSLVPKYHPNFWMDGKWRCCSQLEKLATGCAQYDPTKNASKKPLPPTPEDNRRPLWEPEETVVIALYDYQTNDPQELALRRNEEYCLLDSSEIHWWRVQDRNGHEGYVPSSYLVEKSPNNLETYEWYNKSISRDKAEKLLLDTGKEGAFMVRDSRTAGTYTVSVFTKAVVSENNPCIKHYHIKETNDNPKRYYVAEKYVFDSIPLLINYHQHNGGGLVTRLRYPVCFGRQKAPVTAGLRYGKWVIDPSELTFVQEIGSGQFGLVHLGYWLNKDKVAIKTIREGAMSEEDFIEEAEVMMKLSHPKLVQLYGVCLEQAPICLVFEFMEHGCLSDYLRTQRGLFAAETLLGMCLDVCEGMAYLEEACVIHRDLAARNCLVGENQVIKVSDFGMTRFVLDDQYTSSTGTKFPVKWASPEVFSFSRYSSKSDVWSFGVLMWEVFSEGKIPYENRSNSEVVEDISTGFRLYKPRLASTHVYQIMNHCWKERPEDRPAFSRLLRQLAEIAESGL

EGFR (G719S) = EGFR (G719S) (Homo sapiens (Human), UniProt P00533, G719S); experiment: KINOMEscan; type: binding; conditions: 1 uM
[4] = biological target: RSK4 (Kin.Dom.2-C-terminal) (Homo sapiens (Human), UniProt Q9UK32); experiment: KINOMEscan; type: binding; conditions: 1 uM
[5] = biological target: TYK2 (JH2domain-pseudokinase) (Homo sapiens (Human), UniProt P29597); experiment: KINOMEscan; type: binding; conditions: 1 uM
ADCK3 = ADCK3 (Homo sapiens (Human), UniProt Q8NI60); experiment: KINOMEscan; type: binding; conditions: 1 uM
ADCK3, sequence (Q8NI60 163-647): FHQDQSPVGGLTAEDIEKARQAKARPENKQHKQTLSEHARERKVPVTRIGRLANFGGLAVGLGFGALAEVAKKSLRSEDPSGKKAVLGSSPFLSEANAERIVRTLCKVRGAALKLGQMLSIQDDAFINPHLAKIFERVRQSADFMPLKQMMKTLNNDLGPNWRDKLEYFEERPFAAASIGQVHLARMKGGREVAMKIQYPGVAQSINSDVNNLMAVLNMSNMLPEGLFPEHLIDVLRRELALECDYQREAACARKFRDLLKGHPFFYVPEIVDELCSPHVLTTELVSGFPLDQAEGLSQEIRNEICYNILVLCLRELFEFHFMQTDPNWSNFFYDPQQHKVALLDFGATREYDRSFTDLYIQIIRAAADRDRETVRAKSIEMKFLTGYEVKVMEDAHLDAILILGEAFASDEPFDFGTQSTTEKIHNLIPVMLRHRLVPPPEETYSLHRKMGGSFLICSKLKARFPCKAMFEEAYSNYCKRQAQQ

[6] = biological target: ABL1 (Q252H)-phosphorylated (Homo sapiens (Human), UniProt P00519, Q252H); experiment: KINOMEscan; type: binding; conditions: 1 uM
TYRO3 = TYRO3 (Homo sapiens (Human), UniProt Q06418); experiment: KINOMEscan; type: binding; conditions: 1 uM
FLT3 (R834Q) = FLT3 (R834Q) (Homo sapiens (Human), UniProt P36888, R834Q); experiment: KINOMEscan; type: binding; conditions: 1 uM

COc1ccc(N2C(=O)N(c3c(C)cccc3C)Cc3cnc(Nc4ccc(N5CCN(C)CC5)cc4)nc32)c(OC)c1 [HG-11-136-01]
KINOMEscan ERBB2 (ERBB2): 0
KINOMEscan IKK-epsilon (IKK-epsilon): 47
KINOMEscan NEK6 (NEK6): 100
KINOMEscan BMPR2 (BMPR2): 77
KINOMEscan MST3 (MST3): 4.6
KINOMEscan SNRK (SNRK): 91
KINOMEscan MKK7 (MKK7): 80
KINOMEscan ERK3 (ERK3): 81
KINOMEscan LKB1 (LKB1): 69
KINOMEscan HPK1 (HPK1): 0.95
KINOMEscan YANK1 (YANK1): 0.2
KINOMEscan CDKL2 (CDKL2): 14
KINOMEscan FLT4 (FLT4): 6.6
KINOMEscan NEK3 (NEK3): 39
KINOMEscan GAK (GAK): 6.8
KINOMEscan FLT1 (FLT1): 5.2
KINOMEscan DDR1 (DDR1): 0.3
KINOMEscan SBK1 (SBK1): 6.6
KINOMEscan ABL1 (Y253F)-phosphorylated [1]: 0.15
KINOMEscan RIPK2 (RIPK2): 0.1
KINOMEscan JNK2 (JNK2): 20
qAC50 [2]: 171 nM
Data Mode ([2]; curve direction of qAC50 data): decreasing
KINOMEscan RSK1 (Kin.Dom.2-C-terminal) [3]: 9.7
KINOMEscan PFTAIRE2 (PFTAIRE2): 78
KINOMEscan LIMK2 (LIMK2): 0
KINOMEscan IRAK4 (IRAK4): 49
KINOMEscan BUB1 (BUB1): 100
KINOMEscan EPHA1 (EPHA1): 0
KINOMEscan MYO3B (MYO3B): 29
KINOMEscan KIT (V559D, T670I) (KIT (V559D, T670I)): 55
KINOMEscan MTOR (MTOR): 83
KINOMEscan MAP3K2 (MAP3K2): 0.05
KINOMEscan ITK (ITK): 66
KINOMEscan EGFR (G719S) (EGFR (G719S)): 0.2
KINOMEscan RSK4 (Kin.Dom.2-C-terminal) [4]: 4
KINOMEscan TYK2 (JH2domain-pseudokinase) [5]: 1.2
KINOMEscan ADCK3 (ADCK3): 38
KINOMEscan ABL1 (Q252H)-phosphorylated [6]: 0.25
KINOMEscan TYRO3 (TYRO3): 1.6
KINOMEscan FLT3 (R834Q) (FLT3 (R834Q)): 48
